According to BindingDB's records for doi:10.1016/S0960-894X(00)80062-1 (1994):

Target: Squalene synthase (Candida albicans)
Test: In vitro inhibitory activity against Candida albicans squalene synthase

C=C(CCC12CCC(C(=O)O)(O1)C(O)(C(=O)O)C(C(=O)O)O2)[C@@H](OC(C)=O)[C@H](C)Cc1ccccc1 (stereo partly drawn) [1-((4S,5R)-4-Acetoxy-5-methyl-3-methylene-6-phenyl-hexyl)-4-hydroxy-2,8-dioxa-bicyclo[3.2.1]octane-3,4,5-tricarboxylic acid]
IC50: 430 nM
